In PubChem BioAssay AID977614 (Broad Institute, 2014):
The source made the active and inactive calls.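 How the source made its calls: active means parasite count per well reduced by over 3 SD from the mean, with host cell number above 80% of untreated; inactive means the rest.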

System: L. donovani amastigotes in THP-1 macrophages, DAPI imaging, 72 h
Assay: antileishmanial activity in infected macrophages – imaging, THP-1 host macrophages, single concentration (AID 977614);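 further: signal is the parasite per host cell ratio from DAPI stained kinetoplasts and nuclei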

Structure (SMILES)	AC50
CCC(=O)N1[C@H](CO)[C@H]2c3ccccc3N(C(=O)c3cnccn3)C[C@H]21	> 10 µM (inactive)
C[C@H](CO)N1C[C@H](C)[C@@H](CN(C)C(=O)c2ccc(N3CCN(C)CC3)cc2)OCc2cnnn2CCCC1=O	> 10 µM (inactive)
CCC(=O)N1C[C@@H]2[C@H](c3ccccc31)[C@H](CO)N2Cc1ccc(F)cc1	> 10 µM (inactive)
CC(C)N(C[C@H]1N[C@H](CO)[C@H]1c1ccccc1)S(=O)(=O)c1ccccc1	> 10 µM (inactive)
COc1ccccc1S(=O)(=O)N(C)C[C@H]1OCc2cn(nn2)CCCC(=O)N([C@@H](C)CO)C[C@H]1C	> 10 µM (inactive)
COc1ccc(NC(=O)N(C)C[C@H]2OCc3cnnn3CCCC(=O)N([C@H](C)CO)C[C@@H]2C)c(OC)c1	> 10 µM (inactive)
C[C@H](CO)N1C[C@H](C)[C@@H](CN(C)C(=O)Nc2ccc3c(c2)OCO3)OCc2cn(nn2)CCCC1=O	> 10 µM (inactive)
C[C@@H]1CN([C@@H](C)CO)C(=O)CCCn2cc(nn2)CO[C@@H]1CN(C)S(=O)(=O)c1cccc(C#N)c1	> 10 µM (inactive)
C[C@@H]1CN([C@H](C)CO)C(=O)CCCn2cc(nn2)CO[C@@H]1CN(C)S(=O)(=O)c1ccc(-n2cccn2)cc1	> 10 µM (inactive)
COc1ccc(-c2ccc([C@@H]3[C@H](CN(C)S(C)(=O)=O)N[C@@H]3CO)cc2)cc1	> 10 µM (inactive)
O=C(c1ccccn1)N1C[C@@H]2[C@H](c3ccccc31)[C@@H](CO)N2C(=O)C1CCCCC1	> 10 µM (inactive)
O=C(NC[C@@H]1N[C@@H](CO)[C@@H]1c1ccc(-c2ccccc2F)cc1)c1ccccn1	> 10 µM (inactive)
C[C@@H]1CN([C@H](C)CO)C(=O)CCCn2cc(nn2)CO[C@@H]1CN(C)C(=O)c1ccc(N2CCN(C)CC2)cc1	> 10 µM (inactive)
CCS(=O)(=O)N1[C@H](CO)[C@H](c2ccccc2)[C@@H]1CN(C)Cc1ccccn1	> 10 µM (inactive)
CCCNC(=O)N(Cc1cccnc1)C[C@H]1N[C@H](CO)[C@@H]1c1ccccc1	> 10 µM (inactive)
O=C(CC(F)(F)F)N1C[C@H]2[C@@H](c3ccccc31)[C@H](CO)N2C(=O)c1ccncc1	> 10 µM (inactive)
Cc1noc(C)c1NC(=O)N(C)C[C@@H]1OCc2cn(nn2)CCCC(=O)N([C@@H](C)CO)C[C@H]1C	> 10 µM (inactive)
CN(C[C@H]1[C@@H](c2ccccc2)[C@@H](CO)N1Cc1ccccn1)S(C)(=O)=O	> 10 µM (inactive)
CCCN(C[C@H]1N[C@H](CO)[C@@H]1c1ccccc1)C(=O)COC	> 10 µM (inactive)
Cc1cccc(S(=O)(=O)N2C[C@H]3[C@@H](c4ccccc42)[C@@H](CO)N3CC2CCCC2)c1	> 10 µM (inactive)
CCN(C[C@@H]1[C@@H](c2ccccc2)[C@@H](CO)N1C(=O)COC)S(C)(=O)=O	> 10 µM (inactive)
C[C@H]1CN([C@@H](C)CO)C(=O)CCCn2cc(nn2)CO[C@H]1CN(C)S(=O)(=O)c1ccc(-n2cccn2)cc1	> 10 µM (inactive)
C[C@H]1CN([C@@H](C)CO)C(=O)CCCn2nncc2CO[C@H]1CN(C)S(=O)(=O)c1ccc(Oc2ccccc2)nc1	> 10 µM (inactive)
C/C=C/c1ccc([C@H]2[C@@H](CO)N[C@@H]2CN(C(=O)c2ccccc2F)C(C)C)cc1	> 10 µM (inactive)
COCC(=O)N1[C@H](CO)[C@@H]2c3ccccc3N(C)C[C@@H]21	> 10 µM (inactive)
COc1ccc(C(=O)N2C[C@H]3[C@@H](c4ccccc42)[C@@H](CO)N3Cc2ccccc2Cl)cc1	> 10 µM (inactive)
CCCNC(=O)N1C[C@H]2[C@@H](c3ccccc31)[C@@H](CO)N2C(=O)Nc1ccccc1F	> 10 µM (inactive)

Structure (SMILES)	AC50
O=C(Cc1cccnc1)N1[C@H](CNCC2CCC2)[C@H](c2ccccc2)[C@@H]1CO	> 10 µM (inactive)
O=C(c1ccccn1)N1C[C@@H]2[C@H](c3ccccc31)[C@H](CO)N2C(=O)C1CCCCC1	> 10 µM (inactive)
CC(=O)N(Cc1cccc(F)c1)C[C@H]1[C@@H](c2ccccc2)[C@@H](CO)N1C(C)=O	> 10 µM (inactive)
C[C@@H]1CN([C@H](C)CO)C(=O)CCCn2cc(nn2)CO[C@H]1CN(C)C(=O)Nc1cccc2ccccc12	> 10 µM (inactive)
C[C@H](CO)N1C[C@H](C)[C@H](CN(C)C(=O)c2ccc3ccn(C)c3c2)OCc2cnnn2CCCC1=O	> 10 µM (inactive)
O=C(Cc1cccnc1)N1[C@@H](CO)[C@H](c2ccccc2)[C@@H]1CNCC1CCC1	> 10 µM (inactive)
O=C(c1ccc2c(c1)OCO2)N1C[C@H]2[C@@H](c3ccccc31)[C@@H](CO)N2C(=O)CC1CC1	> 10 µM (inactive)
O=C(c1ccncc1)N1C[C@@H]2[C@H](c3ccccc31)[C@@H](CO)N2C(=O)CN1CCOCC1	> 10 µM (inactive)
C[C@H]1CN([C@@H](C)CO)C(=O)CCCn2cc(nn2)CO[C@@H]1CN(C)Cc1ccccc1	> 10 µM (inactive)
C[C@H](CO)N1C[C@H](C)[C@@H](CN(C)Cc2ccccc2C(=O)O)OCc2cnnn2CCCC1=O	> 10 µM (inactive)
C[C@@H]1CN([C@@H](C)CO)C(=O)CCCn2nncc2CO[C@@H]1CN(C)C(=O)Nc1cccc(Oc2ccccn2)c1	> 10 µM (inactive)
C[C@@H]1CN([C@H](C)CO)C(=O)CCCn2nncc2CO[C@H]1CN(C)C(=O)c1ccc(N2CCN(C)CC2)cc1	> 10 µM (inactive)
O=C(NC[C@H]1[C@@H](c2ccccc2)[C@H](CO)N1C(=O)C1CCC1)NC1CCCC1	> 10 µM (inactive)
COCC(=O)N(C[C@H]1N[C@H](CO)[C@@H]1c1ccc(-c2cncnc2)cc1)C(C)C	> 10 µM (inactive)
CC(=O)N1[C@H](CNC(=O)CN(C)C)[C@H](c2ccc(C3=CCCCC3)cc2)[C@@H]1CO	> 10 µM (inactive)
OC[C@@H]1[C@H](c2ccc(-c3ccc(F)cc3)cc2)[C@H](CNC2CCCC2)N1CCC(F)(F)F	> 10 µM (inactive)
CCCNC(=O)N(C)C[C@H]1[C@H](c2ccccc2)[C@@H](CO)N1C(=O)c1ccccc1	> 10 µM (inactive)
Cc1noc(C)c1S(=O)(=O)N(C)C[C@H]1OCc2cn(nn2)CCCC(=O)N([C@@H](C)CO)C[C@H]1C	> 10 µM (inactive)
C/C=C/c1ccc([C@H]2[C@@H](CO)N(CC3CCCC3)[C@H]2CNS(C)(=O)=O)cc1	> 10 µM (inactive)
C[C@@H]1CN([C@H](C)CO)C(=O)CCCn2nncc2CO[C@@H]1CN(C)Cc1ccc(C(=O)Nc2ccccc2N)cc1	> 10 µM (inactive)
O=C(Nc1cccc(F)c1)N1C[C@@H]2[C@H](c3ccccc31)[C@@H](CO)N2C(=O)Cc1ccccn1	> 10 µM (inactive)
O=S(=O)(NC[C@H]1[C@H](c2ccccc2)[C@@H](CO)N1CC1CC1)c1ccccc1	> 10 µM (inactive)
COCCNC[C@@H]1[C@H](c2ccccc2)[C@H](CO)N1c1nc(C)c(C)s1	> 10 µM (inactive)
COCC(=O)N1[C@@H](CO)[C@@H]2c3ccccc3NC[C@@H]21	> 10 µM (inactive)
CCC(=O)N1[C@@H]2CN(C(=O)Nc3ccc(Cl)cc3)c3ccccc3[C@@H]2[C@@H]1CO	> 10 µM (inactive)
COc1ccc(C(=O)N2C[C@H]3[C@@H](c4ccccc42)[C@H](CO)N3C(=O)NC(C)C)cc1	> 10 µM (inactive)
CCN(C[C@H]1[C@H](c2ccccc2)[C@H](CO)N1CC1CC1)C(=O)c1ccccn1	> 10 µM (inactive)
